The values below come from PubChem BioAssay (NCI).

SMILES strings stand for the structures.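 Step 1: Grow cells in 96-well plates. Step 2: Expose to compound for 48 hours at 5 concentrations. Step 3: Interpolate endpoints linearly; if unreached, use highest concentration. TGI is the concentration that stops growth completely.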

Some test systems named below: MDA-MB-231 breast; NCI/ADR-RES ovarian; HCT-116 colon; 786-0 renal; KM12 colon; T-47D breast; MDA-MB-435; SK-MEL-2 melanoma; SK-MEL-28 melanoma; DU-145 prostate; RPMI-8226 leukemia; K-562 leukemia; RXF 393 renal; SF-539 CNS; NCI-H460 lung; OVCAR-4 ovarian; CAKI-1 renal; SK-OV-3 ovarian; MDA-N; HOP-92 NSCLC.
What all share (assay): inhibition of tumour cell growth, NCI panel, 48 h

On to `CSc1c(C(=O)Nc2ccc(C)cc2)c(N)n(N)c(=O)c1C#N`, for which the TGI with MDA-MB-231 breast, with NCI/ADR-RES ovarian, with HCT-116 colon, in the experiment with 786-0 renal, in the experiment with KM12 colon and in the experiment with T-47D breast was greater than 100 µM throughout. The TGI in the experiment on MDA-MB-435, in the experiment on SK-MEL-2 melanoma, in the experiment on SK-MEL-28 melanoma, in the experiment with DU-145 prostate, with RPMI-8226 leukemia and with K-562 leukemia was greater than 100 µM in each case. Also, the TGI with RXF 393 renal, with SF-539 CNS, in the experiment with NCI-H460 lung, in the experiment with OVCAR-4 ovarian, in the experiment with CAKI-1 renal and in the experiment with SK-OV-3 ovarian was greater than 100 µM in each case. This compound registered a TGI with MDA-N greater than 100 µM.

Turning to `COC1=CC(=O)c2c(cc(COP(=O)(OCC3OC(n4cc(F)c(=O)[nH]c4=O)CC3O)N(C)CCCCCl)n2C)C1=O` (centres undefined), the TGI with MDA-MB-231 breast is 35.8 µM; in the experiment on HOP-92 NSCLC, 12.3 µM; in the experiment on NCI/ADR-RES ovarian, greater than 40.6 µM; in the experiment with HCT-116 colon it was 28.5 µM; in the experiment with 786-0 renal, greater than 69.2 µM; with KM12 colon, 97.9 µM. For the same compound, the TGI in the experiment on T-47D breast is 36.2 µM; with MDA-MB-435, 5 µM; in the experiment with SK-MEL-2 melanoma, 56.6 µM; in the experiment with SK-MEL-28 melanoma, greater than 68.8 µM; in the experiment with DU-145 prostate it was 33.3 µM; in the experiment with RPMI-8226 leukemia, greater than 19.8 µM. The TGI is greater than 95.9 µM with K-562 leukemia; 4.71 µM in the experiment on RXF 393 renal; 14 µM with NCI-H460 lung; greater than 34.8 µM with OVCAR-4 ovarian; greater than 79.8 µM with SK-OV-3 ovarian; 8.86 µM with MDA-N.

As to `Cc1ccc(C2SCC(=O)N2c2ccc(-c3ccc(-n4c(-c5ccccc5)nc5ccccc5c4=O)cc3)cc2)cc1` (centres undefined), the TGI with MDA-MB-231 breast, in the experiment with HOP-92 NSCLC, with NCI/ADR-RES ovarian, in the experiment with 786-0 renal, in the experiment with KM12 colon and in the experiment with T-47D breast was greater than 100 µM throughout. Besides, the TGI in the experiment on MDA-MB-435, in the experiment with SK-MEL-2 melanoma, in the experiment with SK-MEL-28 melanoma, with DU-145 prostate, in the experiment on RPMI-8226 leukemia and with K-562 leukemia was greater than 100 µM in each case. The TGI in the experiment with NCI-H460 lung, in the experiment on OVCAR-4 ovarian, with CAKI-1 renal, in the experiment on SK-OV-3 ovarian and in the experiment on MDA-N was greater than 100 µM throughout.

On to `N#CCOc1ccc(/C=C/C(=O)c2ccc(Cl)cc2)cc1`, for which the TGI in the experiment with MDA-MB-231 breast was 85.5 µM; in the experiment with HOP-92 NSCLC, 81.4 µM; in the experiment with NCI/ADR-RES ovarian, 48.5 µM; with HCT-116 colon, 27.8 µM; in the experiment on 786-0 renal, 48.1 µM; in the experiment on KM12 colon it was 73.5 µM. The TGI in the experiment on T-47D breast was 61.2 µM; in the experiment on MDA-MB-435, greater than 100 µM; with SK-MEL-28 melanoma, greater than 100 µM; with DU-145 prostate it was greater than 100 µM; in the experiment on RPMI-8226 leukemia it was greater than 100 µM; in the experiment on K-562 leukemia it was greater than 100 µM. Besides, the TGI in the experiment with RXF 393 renal is 38.5 µM; with SF-539 CNS it was 36.4 µM; in the experiment on NCI-H460 lung, 64.2 µM; in the experiment on OVCAR-4 ovarian, greater than 100 µM; in the experiment on SK-OV-3 ovarian, 37.3 µM; in the experiment on MDA-N, greater than 100 µM.

`CC(=O)Oc1c2c(c(CC=C(C)C)c3c1C(=O)C1=C[C@@H]4CC5C(C)(C)OC(C/C=C(/C)C(=O)O)(C4=O)[C@@]15O3)OC(C)(CCC=C(C)C)C=C2` (some centres undefined): the TGI stood at 0.779 µM in the experiment on MDA-MB-231 breast; 1.05 µM in the experiment on HOP-92 NSCLC; 2.7 µM in the experiment with NCI/ADR-RES ovarian; 0.316 µM in the experiment with HCT-116 colon; 0.364 µM with 786-0 renal; 0.897 µM with KM12 colon. Besides, the TGI in the experiment with T-47D breast turned out to be 0.439 µM; in the experiment with MDA-MB-435, 0.348 µM; in the experiment on SK-MEL-2 melanoma, 0.982 µM; in the experiment with SK-MEL-28 melanoma, 0.378 µM; with DU-145 prostate it was 0.838 µM; in the experiment on RPMI-8226 leukemia, 0.538 µM. Further, the TGI came to 0.336 µM with RXF 393 renal; 0.252 µM in the experiment on SF-539 CNS; 1.97 µM with NCI-H460 lung; 0.567 µM in the experiment on OVCAR-4 ovarian; 0.409 µM with CAKI-1 renal; 1.91 µM in the experiment with SK-OV-3 ovarian. Besides, the TGI with MDA-N worked out at 0.536 µM.

`Cc1cc(S(=O)(=O)NC2=NC(c3ccccc3)c3cc(Cl)ccc3N2)c(S)cc1Cl` (centres undefined): the TGI in the experiment on MDA-MB-231 breast, in the experiment with HOP-92 NSCLC, with NCI/ADR-RES ovarian, in the experiment with HCT-116 colon, with 786-0 renal and in the experiment with KM12 colon was greater than 100 µM each time. Further, the TGI in the experiment with T-47D breast, with MDA-MB-435, in the experiment with SK-MEL-28 melanoma, with DU-145 prostate, in the experiment on RPMI-8226 leukemia and in the experiment with K-562 leukemia was greater than 100 µM in each case. The TGI in the experiment with RXF 393 renal, in the experiment on SF-539 CNS, with NCI-H460 lung, in the experiment on OVCAR-4 ovarian, in the experiment with CAKI-1 renal and in the experiment with SK-OV-3 ovarian was greater than 100 µM in each case. This compound also returned a TGI in the experiment with MDA-N greater than 100 µM.

Turning to `O=c1c2ccccc2nc2n1C(c1ccc([N+](=O)[O-])cc1)C2(c1ccccc1)c1ccccc1` (centres undefined), the TGI with MDA-MB-231 breast, with HOP-92 NSCLC, with NCI/ADR-RES ovarian, with HCT-116 colon, with 786-0 renal and with KM12 colon was greater than 100 µM in each case. Besides, the TGI with T-47D breast, with MDA-MB-435, in the experiment with SK-MEL-2 melanoma, in the experiment on SK-MEL-28 melanoma, in the experiment with DU-145 prostate and in the experiment with RPMI-8226 leukemia was greater than 100 µM in each case. Moreover, the TGI in the experiment on RXF 393 renal, in the experiment with SF-539 CNS, in the experiment on NCI-H460 lung, with OVCAR-4 ovarian, in the experiment with CAKI-1 renal and in the experiment on SK-OV-3 ovarian was greater than 100 µM throughout. This compound also yielded a TGI with MDA-N greater than 100 µM.
